Drawing on publication PMC7922224, “Searching for Small Molecules as Antibacterials: Non-Cytotoxic Diarylureas Analogues of Triclocarban” (Antibiotics, 2021), this text covers MIC, IC50 and melting point for one molecule.

Converted amounts (≈) assume the structure as drawn. Bounds are passed on as bounds.

The subject of the first series is S. aureus ATCC 29213. The experiment in a line: MIC by broth microdilution (CLSI). The settings on record: Staphylococcus aureus, ATCC29213; Gram-positive; 37 °C, 24 h, Mueller Hinton Broth. The format is cell-based, Staphylococcus aureus. Here is the method: (§1) The in vitro Minimum Inhibitory Concentrations (MICs, μg/mL) were determined by the broth microdilution method according to the Clinical Laboratory Standards Institute (CLSI) guidelines. MIC values were recorded as the lowest concentration of compounds at which there was no optically detectable microorganism growth and evaluated by comparing the growth in each well visually with that of the growth in the control well for bacteria. All compounds were dissolved in dimethyl sulfoxide (DMSO) and were tested in a final concentration range of from 512 to 2 µg/mL. MICs for the reference antibiotic norfloxacin against quality control strains were used to confirm the validity of the screen. According to the CLSI guidelines, diphenylureas were tested in vitro against a panel of Gram-positive and Gram-negative bacteria belonging to the ATCC collection using the standard microdilution test for the determination of MICs. MICs of the synthesised compounds along with the parent compound TCC and with the standard antibiotic norfloxacin are listed in Table 1. The compounds were also analyzed in terms of molecular mass, logP (Table 1), number of hydrogen-bond donors and number of hydrogen-bond acceptors, and most of them obeyed Lipinski’s rule. […] Based on our results, it seems that the 3,4-dichloro-disubstitution pattern, which is present in TCC, is not crucial for activity. […] Moreover, the activity against Enterococcus faecalis was interesting. E. faecalis is a ubiquitous member of the healthy human gut microbiota and also a common opportunistic pathogen and leading cause of nosocomial infections. It has a high incidence for most infections, and the case numbers have been increasing in recent decades, likely due to its greater ability to persist in healthcare facilities and its higher abundance in the human gut microbiome. Kim et al. (2016) compared the bactericidal effects of plain and antibacterial soap containing 0.3% TCC. The authors found no significative difference between the effects of plain and medicated soap at either temperature, with the only exception of E. faecalis ATCC 19433 at 40 °C.
(§2) MICs (μg/mL) were determined by the broth microdilution method, using 96-well plates, according to CLSI [26]. Stock solutions of the investigated compounds were obtained by setting the concentration at the maximum possible value. Then, the stock solutions were diluted 1:10 with Mueller Hinton Broth (Oxoid, Italy). Afterwards, twofold serial dilutions in the suitable test medium were carried out to obtain a set of concentrations from 512 to 2 µg/mL in the wells. To obtain the stock solution, DMSO (100%) was employed as diluent. The following bacteria strains, available as freeze-dried discs, belonging to the ATCC collection, were used: Gram-positive: S. aureus ATCC 29213, 6538, and 6538P, E. faecalis ATCC 29212; Gram-negative: K. pneuomoniae ATCC 13883, P. aeruginosa ATCC 27853. To conserve the purity of cultures and to enable their reproducibility, cryovials of all microbial strains in the medium were set up and stored at −80 °C. Pre-cultures of each bacterial strain were prepared in Mueller Hinton Broth (MHB) and incubated at 37 °C for 3–5 h. The turbidity of bacterial cell suspension was calibrated to 0.5 McFarland Standard by the spectrophotometric method (OD 625 nm 0.08–0.10), as indicated in the CLSI protocol M7-A9 and, further, the standardized suspension was diluted (1:100) with MHB to reach 1–2 × 10^6 CFU/mL. All wells were seeded with 100 µl of the mentioned final inoculum, and some wells contained only inoculated broth as control growth. […] The MICs were determined by using the assay repeated twice in triplicate. Throughout the study, norfloxacin was used as reference antibiotic. Appropriate controls involved norfloxacin for bacteria as international reference standard. […]
Consider `Cc1cccc(C)c1NC(=O)Nc1ccc(Cl)cc1` [1bc, 1-(2,6-Dimethylphenyl)-3-(4-chlorophenyl)urea], for which the MIC (as a rule, the lowest concentration that inhibits growth of the organism) was determined as 256 µg/mL (≈ 932 µM).

The subject of another series is S. aureus ATCC 6538P. Description: MIC by broth microdilution (CLSI). The format is cell-based, Staphylococcus aureus. Particulars: Staphylococcus aureus, ATCC6538P; Gram-positive; 37 °C, 24 h, Mueller Hinton Broth. On the procedure: as §1, §2
In general terms: Dilution methods test growth across graded concentrations, often in twofold steps.
On to `Cc1cccc(C)c1NC(=O)Nc1ccc(Cl)cc1` [1bc, 1-(2,6-Dimethylphenyl)-3-(4-chlorophenyl)urea], for which the MIC came to 16 µg/mL (≈ 58.2 µM).

The test system of another series is S. aureus ATCC 6538. The experiment in a line: MIC by broth microdilution (CLSI). Particulars: Staphylococcus aureus, ATCC6538; Gram-positive; 37 °C, 24 h, Mueller Hinton Broth. The class given is cell-based, Staphylococcus aureus. Here is the method:
as §1, §2
Regarding `Cc1cccc(C)c1NC(=O)Nc1ccc(Cl)cc1` [1bc, 1-(2,6-Dimethylphenyl)-3-(4-chlorophenyl)urea], the lowest concentration to inhibit growth (MIC) was 16 µg/mL (≈ 58.2 µM).

A further series deals with E. faecalis ATCC 29212. Description: MIC by broth microdilution (CLSI). The format is cell-based, Enterococcus faecalis. Particulars: Enterococcus faecalis, ATCC29212; Gram-positive; 37 °C, 24 h, Mueller Hinton Broth; read-out: MIC E.f. 29212. On the procedure: as §1, §2
On to `Cc1cccc(C)c1NC(=O)Nc1ccc(Cl)cc1` [1bc, 1-(2,6-Dimethylphenyl)-3-(4-chlorophenyl)urea], for which the MIC was determined as 32 µg/mL (≈ 116 µM).

Another series deals with E. coli 25922. The experiment in a line: MIC by broth microdilution (CLSI). The class given is cell-based. The settings on record: Escherichia coli, Gram-negative, 37 °C, 24 h, Mueller Hinton Broth.
`Cc1cccc(C)c1NC(=O)Nc1ccc(Cl)cc1` [1bc, 1-(2,6-Dimethylphenyl)-3-(4-chlorophenyl)urea] had an MIC of over 256 µg/mL.

The test system of a further series is K. pneumoniae ATCC 13883. The experiment in a line: MIC by broth microdilution (CLSI). The format is cell-based. Particulars: Klebsiella pneumoniae, ATCC13883; Gram-negative; 37 °C, 24 h, Mueller Hinton Broth; read-out: MIC K.p. 13883. Here is the method:
as §1, §2
Take `Cc1cccc(C)c1NC(=O)Nc1ccc(Cl)cc1` [1bc, 1-(2,6-Dimethylphenyl)-3-(4-chlorophenyl)urea]: the MIC is over 256 µg/mL.

The test system of the next series is P. aeruginosa ATCC 27853. The experiment in a line: MIC by broth microdilution (CLSI). The settings on record: Pseudomonas aeruginosa, ATCC27853; Gram-negative; 37 °C, 24 h, Mueller Hinton Broth. The class given is cell-based. On the procedure: as §1, §2
For `Cc1cccc(C)c1NC(=O)Nc1ccc(Cl)cc1` [1bc, 1-(2,6-Dimethylphenyl)-3-(4-chlorophenyl)urea], the MIC was over 256 µg/mL.

The subject of another series is Staphylococcus aureus. The experiment in a line: MIC by broth microdilution, S. aureus (strain not given). The format is cell-based. The settings on record: strain not specified (best value among the ATCC strains), read-out: MIC against S. aureus. On the procedure:
as §1, §2
In the case of `Cc1cccc(C)c1NC(=O)Nc1ccc(Cl)cc1` [1bc, 1-(2,6-Dimethylphenyl)-3-(4-chlorophenyl)urea], the minimal inhibitory concentration (MIC) was found to be 16 µg/mL (≈ 58.2 µM).

For a further series, the system named is A2058 melanoma epithelial cells. Description: MTT cell viability assay. The format is cell-based. Particulars: Homo sapiens, 72 h, mean ± SD of three independent experiments. The text has this:
(§3) Human MCF-7 and MDA-MB-231 breast cancer cells, HeLa and […] uterine carcinoma cells, A2058 melanoma epithelial cells, MCF-10A mammary epithelial cells and Hek-293 embryonic kidney epithelial cells were obtained from American Type Culture Collection (ATCC, Manassas, VA, USA). Estrogen receptor positive [(ER(+)] MCF-7 and triple negative MDA-MB-231 breast cancer cells were maintained in Dulbecco’s modified Eagle’s medium/nutrient mixture F-12 Ham (DMEM-F12) medium containing 2 mmol/L L-glutamine, 1 mg/mL penicillin-streptomycin and supplemented with 5% fetal bovine serum (FBS). HeLa epithelial cervix carcinoma cells, estrogen receptor negative [ER(-)], and Ishikawa endometrial adenocarcinoma cell, estrogen receptor positive [ER(+)], were kept in minimum essential medium (MEM), supplemented with 10% FBS, 100 U/mL penicillin/streptomycin and 1% non-essential amino acid. A2058 highly metastatic melanoma epithelial cells were kept in DMEM low glucose (1 g/L), supplemented with 20% FBS, 1% l-glutamine and 100 U/mL penicillin/streptomycin. MCF-10A mammary epithelial cells, were cultured in DMEM/F12 medium, supplemented with 5% horse serum (HS), 100 U/mL penicillin/streptomycin, […] hydrocortisone, 20 ng/mL human epidermal growth factor (hEGF), […] and […] cholera enterotoxin (Sigma-Aldrich, Milan, Italy). Hek-293 embryonic kidney epithelial cells were cultured in DMEM high glucose (4.5 g/L), supplemented with 10% FBS, 1% l-glutamine and 100 U/mL penicillin/streptomycin. Cells were conserved at 37 °C in a humid atmosphere of 95% air and 5% CO2, and screened for contamination at regular intervals.
(§4) Cell viability was determined using the 3-(4,5-dimethylthiazol-2-y1)-2,5-diphenyltetrazolium bromide (MTT, Sigma-Aldrich, Milan, Italy) assay. Cells were seeded on 48-well plates and grown in complete medium. Before treatment, cells were starved in serum free medium for 24 h to allow cell cycle synchronization. […] Data are representative of three independent experiments; standard deviations (SD) are shown.
(Tetrazolium assays rely on reduction of a dye to a coloured formazan, in cell work by metabolically active cells.)
For `Cc1cccc(C)c1NC(=O)Nc1ccc(Cl)cc1` [1bc, 1-(2,6-Dimethylphenyl)-3-(4-chlorophenyl)urea], the IC50 (as a rule, the concentration at which inhibition is half-maximal) is over 200 µg/mL.

The next series has as its system HeLa uterine cancer cells. The experiment in a line: MTT cell viability assay. Particulars: Homo sapiens, 72 h, mean ± SD of three independent experiments. The format is cell-based.
From the text: as §3, §4
`Cc1cccc(C)c1NC(=O)Nc1ccc(Cl)cc1` [1bc, 1-(2,6-Dimethylphenyl)-3-(4-chlorophenyl)urea] gave an IC50 of over 200 µg/mL.

Another series relates to Hek-293 embryonic kidney epithelial cells. The experiment in a line: MTT cell viability assay. The format is cell-based. Particulars: Homo sapiens, HEK293, normal cells, 72 h, mean ± SD of three independent experiments.
From the text: as §3, §4
In turn, `Cc1cccc(C)c1NC(=O)Nc1ccc(Cl)cc1` [1bc, 1-(2,6-Dimethylphenyl)-3-(4-chlorophenyl)urea] came in with an IC50 of over 200 µg/mL.

In another series the test system is Ishikawa uterine cancer cells. The experiment in a line: MTT cell viability assay. The format is cell-based. The settings on record: Homo sapiens, 72 h, mean ± SD of three independent experiments.
From the text: as §3, §4
For `Cc1cccc(C)c1NC(=O)Nc1ccc(Cl)cc1` [1bc, 1-(2,6-Dimethylphenyl)-3-(4-chlorophenyl)urea], the IC50 is over 200 µg/mL.

In another series the test system is MCF-10A mammary epithelial cells. Description: MTT cell viability assay. Particulars: Homo sapiens, normal cells, 72 h, mean ± SD of three independent experiments. The class given is cell-based.
From the text: as §3, §4
In turn, `Cc1cccc(C)c1NC(=O)Nc1ccc(Cl)cc1` [1bc, 1-(2,6-Dimethylphenyl)-3-(4-chlorophenyl)urea] showed a 50% inhibitory concentration (IC50) of over 200 µg/mL.

A further series has as its system MCF-7 breast cancer cells. Description: MTT cell viability assay. The class given is cell-based. Particulars: Homo sapiens, MCF7, 72 h, mean ± SD of three independent experiments.
From the text: as §3, §4
The molecule `Cc1cccc(C)c1NC(=O)Nc1ccc(Cl)cc1` [1bc, 1-(2,6-Dimethylphenyl)-3-(4-chlorophenyl)urea] displayed an IC50 of over 200 µg/mL.

Another series concerns MDA-MB-231 breast cancer cells. The experiment in a line: MTT cell viability assay. The class given is cell-based. Particulars: Homo sapiens, 72 h, mean ± SD of three independent experiments.
From the text: as §3, §4
For the molecule `Cc1cccc(C)c1NC(=O)Nc1ccc(Cl)cc1` [1bc, 1-(2,6-Dimethylphenyl)-3-(4-chlorophenyl)urea], the IC50 was over 200 µg/mL.

In the next series the test system is cancer cell lines (MCF-7, MDA-MB-231, HeLa, Ishikawa, A2058). Description: MTT cell viability assay, panel of cancer cell lines. The format is cell-based. Particulars: Homo sapiens, all cancer cell lines used, 72 h, read-out: IC50 against the cancer cell lines.
From the text: In order to investigate the anticancer effects of compounds 1ab, 1bc and 1ce (TCC), we used different human cancer cell models, namely, two breast cancer cells (MCF-7 and MDA-MB-231), two uterine cancer cells (HeLa and Ishikawa) and the melanoma epithelial cells A2058.
as §3
Cell viability was determined using the 3-(4,5-dimethylthiazol-2-y1)-2,5-diphenyltetrazolium bromide (MTT, Sigma-Aldrich, Milan, Italy) assay. […]
On to `Cc1cccc(C)c1NC(=O)Nc1ccc(Cl)cc1` [1bc, 1-(2,6-Dimethylphenyl)-3-(4-chlorophenyl)urea], for which the IC50 is over 200 µg/mL.

System in another series: not given
Assay: not given
Details: not given
For `Cc1cccc(C)c1NC(=O)Nc1ccc(Cl)cc1` [1bc, 1-(2,6-Dimethylphenyl)-3-(4-chlorophenyl)urea], the melting point (usually the temperature, or range, at which the solid turns liquid) fell in the range of 244 to 245 °C.
